Measured values: patent US9815854B2, “3-(3H-imidazo[4,5-B]pyridin-2-yl)-1H-pyrazolo[3,4-C]pyridine and therapeutic uses thereof” (Samumed, LLC, priority 2014, dated 2017)

Legend:
[1] = test system: primary human fibroblasts derived from IPF patients (LL29 cells); assay: Inhibition of the fibrotic process in TGF-β1-treated primary human fibroblasts from IPF patients (αSMA staining); type: cell-based; conditions: Fibroblast, 96 h, TGF-β1 20 ng/mL, 4 days, read-out: Inhibition of fibrosis EC50
Outline: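 IPF-derived LL29 lung fibroblasts, 1,500 per well in F12 with 1% FBS, treated with compound (10 μM to […], 0.1% DMSO) and TGF-β1 20 ng/mL for 4 days at 37 °C. αSMA-positive live cells imaged and normalised to TGF-β1 controls; EC50 by nonlinear regression over triplicate wells.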

[2] = test system: Wnt activity (Sp5-Luc reporter, TCF/LEF binding sites) in SW480 colon carcinoma cells; assay: Sp5-Luc Wnt reporter gene screening assay in SW480 colon carcinoma cells; type: cell-based, human; conditions: Homo sapiens
Outline: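 SW480 cells stably transduced with a lentiviral luciferase reporter driven by a Sp5 promoter with eight TCF/LEF sites were plated at 10,000/well in 10% FCS medium. Luminescence was normalised to DMSO and IC50 derived by four-parameter fit.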

[3] = test system: primary human mesenchymal stem cells (hMSCs); assay: Chondrogenesis induction screen in primary human mesenchymal stem cells (nodule imaging, Rhodamine B/Nile Red); type: cell-based; conditions: 6 days; for Max. Activity as % TGF-β3 activity: TGF-β3 (10 ng/mL) positive control; for EC (100% of TGF-b3 activity): Homo sapiens, Mesenchymal stem cells, 144 h, concentration required to induce chondrogenesis equivalent to TGF-β3 (10 ng/mL), read-out: Conc (nM) of 100% TGF-β3 activity
Description: The above synthesized compounds were screened using primary human mesenchymal stem cells (hMSCs) to determine their ability to induce chondrogenesis (process by which cartilage is developed).
Human Mesenchymal Stern Cell Culture: Primary human mesenchymal stem cells (hMSCs) were purchased from Lonza (Walkersville, Md.) and expanded in Mesenchymal Stem Cell Growth Media (Lonza). Cells between passage 3 and 6 were used for the experiments.
Compound Screening: Each compound was dissolved in DMSO as a 10 mM stock and used to prepare compound source plates. Serial dilution (1:3, 6-point dose-response curves from 2700 nM to 10 nM) and compound transfer was performed using the ECHO 550 (Labcyte, Sunnyvale, Calif.) into 96-well clear bottom assay plates (Greiner Bio-One) with appropriate DMSO backfill for a final DMSO concentration of 0.03%. hMSCs were plated at 20,000 cells/well in 250 μL/well incomplete Chondrogenic induction Medium (Lonza; DMEM, dexamethasone, ascorbate, insulin-transferrin-selenium [ITS supplement], gentamycin-amphotericin [GA-1000], sodium pyruvate, proline and L-glutamine). TGF-β3 (10 ng/mL) was used as a positive control for differentiation while negative control wells were treated with 75 nL DMSO for normalization and calculating EC50 values. Cells were incubated at 37° C. and 5% CO2 for 6 days. To image chondrogenic nodules, the cells were fixed using 4% formaldehyde (Electron Microscopy Sciences), and stained with 2 μg/mL Rhodamine B (Sigma-Aldrich) and 20 μM Nile Red (Sigma-Aldrich) [Johnson K., et.al, A Stem Cell-Based Approach to Cartilage Repair, Science, (2012), 336(6082), 717-721]. The nodules imaged (4 images per well at 4× magnification) by excitation at 531 nm and emission at 625 nm and quantified using the CellInsight CX5 (Thermo Scientific). Number of nodules in each well was normalized to the average of 3 DMSO treated wells on the same plate using Excel (Microsoft Inc.). The normalized averages (fold change over DMSO) of 3 replicate wells for each compound concentration were calculated. Due to solubility limitations of some of the compounds, curve fitting was incomplete leading to inaccurate EC50 determinations.
Using TGF-β3 as a positive control, the concentration of test compounds required to induce equivalent levels of chondrogenesis is reported. In addition, the maximum activity of each compound and the respective dose that each compound reached maximum chondrogenesis activity is reported.

Row | SMILES | IC50 [2] [µM] | EC50 [1] [µM] | Max. Activity as % TGF-β3 activity [3] [%] | EC (100% of TGF-b3 activity) [3] [nM]
1 | CC(C)(C)CC(=O)Nc1cncc(-c2cc3c(-c4nc5c(-c6ccccc6F)ccnc5[nH]4)n[nH]c3cn2)c1 [Compound 68, N-(5-(3-(7-(2-Fluorophenyl)-3H-imidazo[4,5-b]pyridin-2-yl)-1H-pyrazolo[3,4-c]pyridin-5-yl)pyridin-3-yl)-3,3-dimethylbutanamide] | 0.0244 | 0.09 |  | 9.3
2 | FC1(F)CCN(Cc2cncc(-c3cc4c(-c5nc6c(N7CCCCC7)ccnc6[nH]5)n[nH]c4cn3)c2)C1 [Compound 181, 5-(5-((3,3-Difluoropyrrolidin-1-yl)methyl)pyridin-3-yl)-3-(7-(piperidin-1-yl)-3H-imidazo[4,5-b]pyridin-2-yl)-1H-pyrazolo[3,4-c]pyridine] | 0.0167 | 0.053 |  | 25.6
3 | CCCC(=O)Nc1cncc(-c2cc3c(-c4nc5c(-c6cccs6)ccnc5[nH]4)n[nH]c3cn2)c1 [Compound 329, N-(5-(3-(7-(Thiophen-2-yl)-3H-imidazo[4,5-b]pyridin-2-yl)-pyrazolo[3,4-c]pyridin-5-yl)pyridin-3-yl)butyramide] | 0.0175 | 0.034 | 300 | 110
4 | O=C(CC1CCNCC1)Nc1cncc(-c2cc3c(-c4nc5c(-c6cccc(F)c6)ccnc5[nH]4)n[nH]c3cn2)c1 [Compound 945] | 0.463 | 0.04 |  | 54.7
5 | Oc1cncc(-c2cc3c(-c4nc5c(-c6cccc(F)c6)ccnc5[nH]4)n[nH]c3cn2)c1 [Compound 949, 5-(3-(7-(3-Fluorophenyl)-3H-imidazo[4,5-b]pyridin-2-yl)-1H-pyrazolo[3,4-c]pyridin-5-yl)pyridin-3-ol] | 0.111 | 0.031 | 100 | 143

These reach a lower IC50 [2]. Values come first.

Row | IC50 [2] [µM] | SMILES | EC50 [1] [µM] | Max. Activity as % TGF-β3 activity [3] [%] | EC (100% of TGF-b3 activity) [3] [nM]
6 | 0.0103 | CC(C)Nc1cncc(-c2cc3c(-c4nc5c(-c6ccc(F)cc6)ccnc5[nH]4)n[nH]c3cn2)c1 [Compound 38, 5-(3-(7-(4-Fluorophenyl)-3H-imidazo[4,5-b]pyridin-2-yl)-1H-pyrazolo[3,4-c]pyridin-5-yl)-N-isopropylpyridin-3-amine] | 0.034 | 300 | 74.9
7 | 0.0161 | c1cncc(-c2cc3c(-c4nc5cccnc5[nH]4)n[nH]c3cn2)c1 [Compound 238] | 0.369 | 30 | 113
8 | 0.0097 | CC(C)(C)C(=O)Nc1cncc(-c2cc3c(-c4nc5c(-c6ccsc6)ccnc5[nH]4)n[nH]c3cn2)c1 [Compound 268, N-(5-(3-(7-(Thiophen-3-yl)-3H-imidazo[4,5-b]pyridin-2-yl)-1H-pyrazolo[3,4-c]pyridin-5-yl)pyridin-3-yl)pivalamide] | 0.141 |  | 25.8
9 | 0.0095 | CCCC(=O)Nc1cncc(-c2cc3c(-c4nc5c(-c6ccc(C)s6)ccnc5[nH]4)n[nH]c3cn2)c1 [Compound 381, N-(5-(3-(7-(5-Methylthiophen-2-yl)-3H-imidazo[4,5-b]pyridin-2-yl)-1H-pyrazolo[3,4-c]pyridin-5-yl)pyridin-3-yl)butyramide] | 0.018 |  | 59.6
